From patent US9458172B2, “Pyridinyl and pyrimidinyl sulfoxide and sulfone derivatives” (priority 2012, dated 2016)
Where two headings read alike, the source gives them in different places.

Tests used:
NAMPT = NAMPT (Homo sapiens (Human), UniProt P43490); assay: Biochemical Inhibition Assay (NAMPT enzymatic reaction, NMN quantified by mass spectrometry); conditions: 33 nM recombinant His-tagged NAMPT, 1 μM NAM, 30 min at rt
Summary of the method: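 His-tagged human NAMPT from E. coli preincubated 15 min at rt with compound in 50 mM Hepes pH 7.5, 50 mM NaCl, 5 mM MgCl2, 1 mM THP, then reacted 30 min at rt with 1 μM NAM, […] PRPP, 2.5 mM ATP. NMN quantified by RapidFire mass spectrometry, normalized to L-Cystathionine, background subtracted.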

A2780 cells = assay: In-Vitro Cell Proliferation Assay (SRB)
[1] = Homo sapiens, A2780, 72 h, read-out: Cell Proliferation (IC50)
[2] = Homo sapiens, A2780, 72 h, read-out: Cell Proliferation (IC50), A2780 cells, 72 h, sulforhodamine B

Chain of NAMPT (P43490 whole entry): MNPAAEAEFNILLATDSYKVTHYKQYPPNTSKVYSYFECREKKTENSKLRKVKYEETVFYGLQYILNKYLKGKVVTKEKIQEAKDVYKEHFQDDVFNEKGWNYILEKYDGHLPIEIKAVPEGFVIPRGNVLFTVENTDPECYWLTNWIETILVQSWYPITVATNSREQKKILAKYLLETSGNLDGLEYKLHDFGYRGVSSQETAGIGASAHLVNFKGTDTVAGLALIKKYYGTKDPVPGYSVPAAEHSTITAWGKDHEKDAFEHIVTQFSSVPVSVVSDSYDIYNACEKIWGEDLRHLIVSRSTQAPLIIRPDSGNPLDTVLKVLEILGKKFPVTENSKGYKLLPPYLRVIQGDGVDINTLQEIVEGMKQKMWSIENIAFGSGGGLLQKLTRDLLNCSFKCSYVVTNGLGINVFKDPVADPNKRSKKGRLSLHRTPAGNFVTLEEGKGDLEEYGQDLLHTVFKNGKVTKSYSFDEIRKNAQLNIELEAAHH

Row | IC50 (NAMPT) [nM] | IC50 (A2780 cells; [1]) [nM] | IC50 (A2780 cells; [2]) [nM] | IC50 (A2780 cells; read-out: Cell Proliferation (IC50), A2780 cells, 72 h, sulforhodamine B) [nM] | Structure (SMILES)
1 | 1740 | 1340 |  |  | O=C(NCc1ccc(S(=O)(=O)C2CCN(CC(F)(F)F)CC2)cn1)c1cnc2[nH]ncc2c1 [Example 153, N-[[5-[[1-(2,2,2-trifluoroethyl)-4-piperidyl]sulfonyl]-2-pyridyl]methyl]-1H-pyrazolo[3,4-b]pyridine-5-carboxamide]
2 | 39.8 | 46.5 |  |  | O=C(NCc1ccc(S(=O)(=O)c2cccc(N3CCOCC3)c2)cn1)c1ccc2nccn2c1 [Example 154, N-[[5-(3-morpholinophenyl)sulfonyl-2-pyridyl]methyl]imidazo[1,2-a]pyridine-6-carboxamide]
3 | 74 | 89.7 |  |  | N#Cc1cccc(S(=O)(=O)c2ccc(CNC(=O)c3ccc4nccn4c3)nc2)c1 [Example 155, N-[[5-(3-cyanophenyl)sulfonyl-2-pyridyl]methyl]imidazo[1,2-a]pyridine-6-carboxamide]
4 | 452 | 940 |  |  | N#Cc1cccc(S(=O)(=O)c2ccc(CNC(=O)c3cnc4[nH]ncc4c3)nc2)c1 [Example 156, N-[[5-(3-cyanophenyl)sulfonyl-2-pyridyl]methyl]-1H-pyrazolo[3,4-b]pyridine-5-carboxamide]
5 | 290 | 217 |  |  | O=C(NCc1ccc(S(=O)(=O)c2cccc(N3CCOCC3)c2)cn1)c1cnc2[nH]ncc2c1 [Example 157, N-[[5-(3-morpholinophenyl)sulfonyl-2-pyridyl]methyl]-1H-pyrazolo[3,4-b]pyridine-5-carboxamide]
6 | 156 | 2000 |  |  | N#Cc1cccc(S(=O)(=O)c2ccc(CNC(=O)N3Cc4ccncc4C3)nc2)c1 [Example 158, N-[[5-(3-cyanophenyl)sulfonyl-2-pyridyl]methyl]-1,3-dihydropyrrolo[3,4-c]pyridine-2-carboxamide]
7 | 253 | 52.8 |  |  | O=C(NCc1ccc(S(=O)(=O)C2CCN(C3CCOCC3)CC2)cn1)c1ccc2nccn2c1 [Example 161, N-[[5-[(1-tetrahydropyran-4-yl-4-piperidyl)sulfonyl]-2-pyridyl]methyl]imidazo[1,2-a]pyridine-6-carboxamide]

More lines, now with the values behind:

Row | Structure (SMILES) | IC50 (NAMPT) [nM] | IC50 (A2780 cells; [1]) [nM] | IC50 (A2780 cells; [2]) [nM] | IC50 (A2780 cells; read-out: Cell Proliferation (IC50), A2780 cells, 72 h, sulforhodamine B) [nM]
8 | CCCC(=O)N1CCC(S(=O)(=O)c2ccc(CNC(=O)c3cc4ccncc4o3)nc2)CC1 [Example 130, N-[[5-[(1-butanoyl-4-piperidyl)sulfonyl]-2-pyridyl]methyl]furo[2,3-c]pyridine-2-carboxamide] | 39.8 | 50.7 |  | 
9 | O=C(NCc1ccc(S(=O)(=O)C2CCN(CC(F)(F)F)CC2)cn1)c1cc2ccncc2o1 [Example 131, N-[[5-[[1-(2,2,2-trifluoroethyl)-4-piperidyl]sulfonyl]-2-pyridyl]methyl]furo[2,3-c]pyridine-2-carboxamide] | 5.24 |  | 24.4 | 
10 | CS(=O)(=O)c1cccc(S(=O)(=O)c2ccc(CNC(=O)c3cnc4[nH]ncc4c3)nc2)c1 [Example 134, N-[[5-(3-methylsulfonylphenyl)sulfonyl-2-pyridyl]methyl]-1H-pyrazolo[3,4-b]pyridine-5-carboxamide] | 16.8 | 446 |  | 
11 | CN1CCN(c2ccc(S(=O)(=O)c3ccc(CNC(=O)c4cc5ccncc5o4)nc3)cn2)CC1 [Example 135, N-[[5-[[6-(4-methylpiperazin-1-yl)-3-pyridyl]sulfonyl]-2-pyridyl]methyl]furo[2,3-c]pyridine-2-carboxamide] | 18 |  |  | 34.4
12 | CS(=O)(=O)c1cccc(S(=O)(=O)c2ccc(CNC(=O)c3ccc4nccn4c3)nc2)c1 [Example 137, N-[[5-(3-methylsulfonylphenyl)sulfonyl-2-pyridyl]methyl]imidazo[1,2-a]pyridine-6-carboxamide] | 56.8 | 81.6 |  | 
13 | O=C(NCc1ccc(S(=O)(=O)c2cnc(N3CCCC3)s2)cn1)c1cc2ccncc2o1 [Example 138, N-[[5-(2-pyrrolidin-1-ylthiazol-5-yl)sulfonyl-2-pyridyl]methyl]furo[2,3-c]pyridine-2-carboxamide] | 9.45 | 2.84 |  | 
14 | COc1cc(OC)cc(S(=O)(=O)c2ccc(CNC(=O)c3cnc4[nH]ncc4c3)nc2)c1 [Example 139, N-[[5-(3,5-dimethoxyphenyl)sulfonyl-2-pyridyl]methyl]-1H-pyrazolo[3,4-b]pyridine-5-carboxamide] | 14.7 | 3.11 |  | 
15 | O=C(NCc1ccc(S(=O)(=O)N2CCN(C3COC3)CC2)cn1)c1cc2ccncc2o1 [Example 141, N-[[5-[4-(oxetan-3-yl)piperazin-1-yl]sulfonyl-2-pyridyl]methyl]furo[2,3-c]pyridine-2-carboxamide] | 207 | 71.7 |  | 
16 | O=C(NCc1ccc(S(=O)(=O)N2CCN(C3COC3)CC2)cn1)N1Cc2ccncc2C1 [Example 142, N-[[5-[4-(oxetan-3-yl)piperazin-1-yl]sulfonyl-2-pyridyl]methyl]-1,3-dihydropyrrolo[3,4-c]pyridine-2-carboxamide] | 220 | 255 |  | 
17 | O=C(NCc1ccc(S(=O)(=O)C2CCN(CC(F)(F)F)CC2)cn1)N1Cc2ccncc2C1 [Example 143, N-[[5-[[1-(2,2,2-trifluoroethyl)-4-piperidyl]sulfonyl]-2-pyridyl)methyl]-1,3-dihydropyrrolo[3,4-c]pyridine-2-carboxamide] | 111 | 61.3 |  | 
18 | CCN(C)c1ncc(S(=O)(=O)c2ccc(CNC(=O)c3ccc4nccn4c3)nc2)s1 [Example 145, N-[[5-[2-[ethyl(methyl)amino]thiazol-5-yl]sulfonyl-2-pyridyl]methyl]imidazo[1,2-a]pyridine-6-carboxamide] | 10.1 | 2.87 |  | 
19 | CCN(C)c1ncc(S(=O)(=O)c2ccc(CNC(=O)N3Cc4ccncc4C3)nc2)s1 [Example 147, N-[[5-[2-[ethyl(methyl)amino]thiazol-5-yl]sulfonyl-2-pyridyl]methyl]-1,3-dihydropyrrolo[3,4-c]pyridine-2-carboxamide] | 6.83 | 5.97 |  | 
20 | O=C(NCc1ccc(S(=O)(=O)N2CCC(N3CCCC3)CC2)cn1)N1Cc2ccncc2C1 [Example 148, N-[[5-[(4-pyrrolidin-1-yl-1-piperidyl)sulfonyl]-2-pyridyl]methyl]-1,3-dihydropyrrolo[3,4-c]pyridine-2-carboxamide] | 75.7 | 85.2 |  | 
21 | O=C(NCc1ccc(S(=O)(=O)N2CCC(N3CCCC3)CC2)cn1)c1cnc2[nH]ncc2c1 [Example 149, N-[[5-[(4-pyrrolidin-1-yl-1-piperidyl)sulfonyl]-2-pyridyl]methyl]-1H-pyrazolo[3,4-b]pyridine-5-carboxamide] | 619 |  | 1860 | 
22 | Nc1ccc(S(=O)(=O)c2ccc(CNC(=O)N3Cc4ccncc4C3)nc2)cn1 [Example 150, N-[[5-[(6-amino-3-pyridyl)sulfonyl]-2-pyridyl]methyl]-1,3-dihydropyrrolo[3,4-c]pyridine-2-carboxamide] | 99.2 | 678 |  | 
23 | N#Cc1cccc(S(=O)(=O)c2ccc(CNC(=O)c3cc4ccncc4o3)nc2)c1 [Example 151, N-[[5-(3-cyanophenyl)sulfonyl-2-pyridyl]methyl]furo[2,3-c]pyridine-2-carboxamide] | 55.2 | 54.6 |  | 
24 | O=C(NCc1ccc(S(=O)(=O)C2CCN(CC(F)(F)F)CC2)cn1)c1ccc2nccn2c1 [Example 152, N-[[5-[[1-(2,2,2-trifluoroethyl)-4-piperidyl]sulfonyl]-2-pyridyl]methyl]imidazo[1,2-a]pyridine-6-carboxamide] | 247 | 106 |  | 
